One test relates to OEA plasma levels. The test is described as follows: Plasma/serum OEA and PEA levels by LC-MS/MS after oral administration in rats. Format: in vivo. Particulars: rat, 30 mg/kg p.o. vs 10 mg/kg p.o. The procedure:
At 0, 1, 2, 4, 8, 12, and 24 hours post-administration, animals were sacrificed to collect serum and brain tissue samples. For each time point, FAAH activity was determined in brain tissue homogenates by essentially the same method as that described in Fegley et al. (2005), J. Pharm. and Exp. Ther., 313:352-358. We observed complete FAAH inhibition at 10 mg/kg and partial FAAH inhibition at 1 mg/kg (FIG. 1).
Serum OEA and PEA levels were determined by LC-MS/MS. As shown in FIGS. 2 (A-B), plasma levels of both OEA and PEA were highly correlated with FAAH inhibition in the brain (R^2=0.9459 and 0.929, respectively). In addition, changes in OEA plasma levels correlated with changes in anandamide (AEA) levels in the brain (FIG. 3; R^2=0.9363), and changes in AEA brain levels correlated with brain FAAH inhibition (FIG. 4; R^2=0.9996). […] AUCs were determined as the sum of the area under the plasma concentration curve of the analyte measured (minus the endogenous level), or as a % FAAH inhibition versus time curve from time zero to the last time point collected by the trapezoidal rule.

Test [1] has as its system OEA and PEA levels in plasma. The test can be described thus: 28-day toxicokinetic (TK) study in rodents, plasma OEA and PEA levels. Format: in vivo, rat. The note with it: rodent TK study, 50, 275 and 1500 mg/kg. From the text:
We carried out toxicokinetic (TK) studies in rodents. […] AEA was included in this assay to examine whether basal or elevated levels of AEA could be detected.

The target in the next test is T1, FAAH (Mus musculus, UniProt O08914).
T1 construct: brain FAAH Activity was also evaluated in an escalating oral dose study in mice; from tissue; host or cells: mouse brain
T1 sequence (O08914 1-579): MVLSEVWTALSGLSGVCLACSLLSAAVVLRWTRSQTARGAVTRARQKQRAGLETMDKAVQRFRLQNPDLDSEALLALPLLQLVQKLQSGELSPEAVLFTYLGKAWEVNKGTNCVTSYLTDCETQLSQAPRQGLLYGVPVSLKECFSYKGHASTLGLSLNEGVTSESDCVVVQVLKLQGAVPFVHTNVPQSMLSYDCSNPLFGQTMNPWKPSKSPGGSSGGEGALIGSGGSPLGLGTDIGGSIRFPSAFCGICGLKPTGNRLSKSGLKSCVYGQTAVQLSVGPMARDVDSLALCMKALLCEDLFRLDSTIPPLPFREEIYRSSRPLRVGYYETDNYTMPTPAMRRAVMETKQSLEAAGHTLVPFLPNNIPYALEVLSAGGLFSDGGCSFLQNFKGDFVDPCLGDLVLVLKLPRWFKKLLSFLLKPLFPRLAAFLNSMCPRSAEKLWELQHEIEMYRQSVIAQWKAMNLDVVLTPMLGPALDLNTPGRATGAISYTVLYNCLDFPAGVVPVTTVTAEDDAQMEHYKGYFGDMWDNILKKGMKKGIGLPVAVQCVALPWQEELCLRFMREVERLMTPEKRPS
The test is described as follows: Escalating oral dose study in mice, brain FAAH activity. The class given is in vivo. The procedure:
Finally, the correlation between increases in plasma OEA levels and brain FAAH Activity was also evaluated in an escalating oral dose study in mice. Inhibition of FAAH activity was maximal at 50 mg/kg p.o. and partial 10 mg/kg p.o. (FIG. 12). Increases in plasma OEA levels directly correlated with brain FAAH inhibition (FIG. 13).

In the next test the test system is plasma OEA levels. The test can be described thus: Time course of plasma OEA levels after oral administration to cynomolgus monkeys. The class given is in vivo. The procedure: Afterwards, a time course of plasma OEA levels was determined for each subject by obtaining a plasma sample at 0.5, 1, 2, 4, 8, 12, and 24 hours post-administration.

SMILES strings stand for the structures.

As for `NC(=O)c1cccc(-c2cccc(OC(=O)NC3CCCCC3)c2)c1` [KDS-4103], in the test with OEA plasma levels, the “plasma levels of OEA at 30 mg/kg compared with 10 mg/kg” value is recorded as “did not increase plasma levels of OEA above those observed at 10 mg/kg”. Also, in test [1], the “FAAH inhibition inferred from OEA and PEA increases” value is on record as “complete across all doses”; the “Increases in OEA and PEA levels across the dose range” value is given as “similar”. For the same compound, the “Inhibition of FAAH activity in brain” value at FAAH (10 mg/kg p.o.) is “partial”. Moreover, the “Inhibition of FAAH activity in brain” value on FAAH (50 mg/kg p.o.) was “maximal”. Moreover, in the test on plasma OEA levels (50-1500 mg/kg), the “inhibition of FAAH activity in primates, concluded from plasma OEA” value was “highly effective”. For the same compound, in the test with plasma OEA levels (each dose of 50-1500 mg/kg), the “time of peak plasma OEA levels” value is “four”. Besides, the “plasma OEA levels after the peak” value in the test on plasma OEA levels (each dose of 50-1500 mg/kg, up to 24 hours) is “remained elevated at all subsequent time points examined”.
